# Assay results taken from patent US4812442A, “Tripeptide renin inhibitors” (priority 1987, dated 1989).
# Counter-ions that a name gives are not always drawn. Square brackets hold non-standard residues; d marks the D form. Peptide text beside a SMILES is read from it. * marks the point of attachment. Sta = CC(C)C[C@H](N)[C@@H](O)CC(=O)O; Isovaleryl = CC(C)CC(=O)*
# Target: T1, renin (Homo sapiens, UniProt P00797)
# T1 sequence (P00797 67-406): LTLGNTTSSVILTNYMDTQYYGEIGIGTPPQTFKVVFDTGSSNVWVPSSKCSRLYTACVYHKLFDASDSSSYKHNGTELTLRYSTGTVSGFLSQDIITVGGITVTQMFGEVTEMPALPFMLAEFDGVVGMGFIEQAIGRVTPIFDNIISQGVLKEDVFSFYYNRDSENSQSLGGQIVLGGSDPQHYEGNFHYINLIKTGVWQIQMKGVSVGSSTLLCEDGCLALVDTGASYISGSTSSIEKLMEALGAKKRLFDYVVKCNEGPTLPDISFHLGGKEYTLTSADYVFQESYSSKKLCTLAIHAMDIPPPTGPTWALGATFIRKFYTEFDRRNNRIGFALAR
# Test: Renin inhibition IC50 (methods of J. Med. Chem., 1985, 28, 1789-1790)
# Format: biochemical
# Details: not given
# Text: The following examples are intended to be representative and not limiting. IC50 results were obtained according to the methods described in J. Med. Chem., 1985, 28, 1789-1790.
row,Compound,IC50
1,"CC(C)(C)OC(=O)N[C@@H](Cc1ccccc1)C(=O)N[C@@H](Cc1c[nH]cn1)C(=O)N[C@@H](CC1CCCCC1)[C@@H](O)CC(=O)NC1C[N+]2(C)CCC1CC2 (stereo partly drawn) [Example 2, N^α -t-butoxycarbonyl-L-phenylalanyl-L-histidyl-(3S,4S)-4-amino-5-cyclohexyl-3-hydroxy-pentanoyl-1-methylquinuclidium-3-yl amide acetate]",0.038 µM
2,"CC(C)(C)OC(=O)N[C@@H](Cc1ccccc1)C(=O)N[C@@H](Cc1c[nH]cn1)C(=O)N[C@@H](CC1CCCCC1)[C@@H](O)CC(=O)NC1C[N+]2(CCCCO)CCC1CC2 (stereo partly drawn) [Example 3, N^α -t-butoxycarbonyl-L-phenylalanyl-L-histidyl(3S,4S)-4-amino-5-cyclohexyl-3-hydroxypentanoyl-1-(4-hydroxybutyl)-quinuclidinium-3-yl amide acetate]",0.033 µM

# Same assay, conditions: renin inhibition; read-out: IC50
row,IC50,Compound
1,2 µM,CC(C)C[C@H](NC(=O)[C@H](Cc1ccccc1)NC(=O)[C@H](Cc1ccccc1)NC(=O)OC(C)(C)C)[C@@H](O)CC(=O)N1CCN(c2cccc[n+]2[O-])CC1 [Example 17]
2,0.01 µM,"CC[C@H](C)[C@@H](C[N+](C)(C)CCO)NC(=O)C[C@H](O)[C@H](CC1CCCCC1)NC(=O)[C@H](Cc1c[nH]cn1)NC(=O)[C@H](Cc1ccccc1)NC(=O)OC(C)(C)C [Example 19, acetate salt]"
3,0.033 µM,CC[C@H](C)[C@@H](CN)NC(=O)C[C@H](O)[C@H](CC1CCCCC1)NC(=O)[C@H](Cc1c[nH]cn1)NC(=O)[C@H](Cc1ccccc1)NC(=O)OC(C)(C)C [Example 11]
4,0.015 µM,"CC[C@H](C)[C@@H](C[N+](C)(C)C)NC(=O)C[C@H](O)[C@H](CC1CCCCC1)NC(=O)[C@H](Cc1c[nH]cn1)NC(=O)[C@H](Cc1ccccc1)NC(=O)OC(C)(C)C [Example 18, di-acetate salt]"
5,0.055 µM,"CC(C)(C)OC(=O)N[C@@H](Cc1ccccc1)C(=O)N[C@@H](Cc1c[nH]cn1)C(=O)N[C@@H](CC1CCCCC1)[C@@H](O)CC(=O)N1CCS(=O)(=O)CC1 [Example 7, Boc-Phe-His-ACHPA-4-thiamorpholine-1,1-dioxide]"
6,0.067 µM,"CC(C)(C)OC(=O)N[C@@H](Cc1ccccc1)C(=O)N[C@@H](Cc1c[nH]cn1)C(=O)N[C@@H](CC1CCCCC1)[C@@H](O)CC(=O)N1CC[S+]([O-])CC1 [Example 6, Boc-Phe-His-ACHPA-4-thiamorpholine-1-oxide]"
7,0.005 µM,CC[C@H](C)[C@@H](CN(C)C)NC(=O)C[C@H](O)[C@H](CC1CCCCC1)NC(=O)[C@H](Cc1c[nH]cn1)NC(=O)[C@H](Cc1ccccc1)NC(=O)OC(C)(C)C [Example 12]

row,Compound,IC50
1,"CC[C@H](C)NC(=O)C[C@H](O)[C@H](CC1CCCCC1)NC(=O)[C@H](Cc1c[nH]cn1)NC(=O)[C@H](Cc1ccccc1)NC(=O)OC(C)(C)C [Example 9, N^α -t-butoxycarbonyl-L-phenylalanyl-L-histidyl(3S,4S)-4-amino-5-cyclohexyl-3-hydroxypentanoyl-2S-(+)-butyl amide]",0.032 µM
2,"CC(C)(C)OC(=O)N[C@@H](Cc1ccccc1)C(=O)N[C@@H](Cc1c[nH]cn1)C(=O)N[C@@H](CC1CCCCC1)[C@@H](O)CC(=O)NC1CN2CCC1CC2 (stereo partly drawn) [Example 1, N^α -t-butoxycarbonyl-L-phenylalanyl-L-histidyl(3S,4S)-4-amino-5-cyclohexyl-3-hydroxypentanoyl-3-quinuclidinyl amide]",0.033 µM
3,"CC(C)(C)OC(=O)N[C@@H](Cc1ccccc1)C(=O)N[C@@H](Cc1c[nH]cn1)C(=O)N[C@@H](CC1CCCCC1)[C@@H](O)CC(=O)N1CCSCC1 [Example 5, Boc-Phe-His-ACHPA-4-thiamorpholine]",0.019 µM
4,"CC(C)(C)OC(=O)N[C@@H](Cc1ccccc1)C(=O)N[C@@H](Cc1c[nH]cn1)C(=O)N[C@@H](CC1CCCCC1)[C@@H](O)CC(=O)NC1C[N+]2([O-])CCC1CC2 (stereo partly drawn) [Example 4, N^α -t-butoxycarbonyl-L-phenylalanyl-L-histidyl-(3S,4S)-4-amino-5-cyclohexyl-3-hydroxypentanoyl-quinuclidinium-3-yl-1-oxide amide]",0.02 µM

# System: nephrectomized rats
# Test: not given
# Details: after the injection of hog renin into nephrectomized rats; cited from earlier work
row,Compound,effect on blood pressure in vivo
1,CC(C)CC(=O)N[C@H](C(=O)N[C@H](C(=O)N[C@@H](CC(C)C)[C@@H](O)CC(=O)N[C@@H](C)C(=O)N[C@@H](CC(C)C)[C@@H](O)CC(=O)O)C(C)C)C(C)C [pepstatin] (Isovaleryl-VV[Sta]A[Sta]-OH),reduces blood pressure
